The values that follow are results of earlier work, collected in patent US8877698B2, “Method and composition for disinfecting hard surfaces” (priority 2001, dated 2014).

In the data set the test system is Mycobacterium tuberculosis var. bovis and poliovirus.

On to `CCO` [ethanol], for which the “concentrations needed to kill resistant organisms” value was 70-90%.
